From publication PMC8151276, “An Integrated Approach toward NanoBRET Tracers for Analysis of GPCR Ligand Engagement” (Molecules, 2021)

Legend:
Assay type in all cases: binding
[1] = target: T1, ADRB1 (Homo sapiens, UniProt P08588); test: NanoBRET screen HiBiT-ADRB1 in HEK293
T1 construct: purchased Promega (in-house HiBiT-GPCR construct library, NanoBRET)

[2] = target: T2, AVPR1B (Homo sapiens, UniProt P47901); test: NanoBRET screen HiBiT-AVPR1B in HEK293
T2 construct: purchased Promega (in-house HiBiT-GPCR construct library, NanoBRET)
T2 sequence (P47901 1-424): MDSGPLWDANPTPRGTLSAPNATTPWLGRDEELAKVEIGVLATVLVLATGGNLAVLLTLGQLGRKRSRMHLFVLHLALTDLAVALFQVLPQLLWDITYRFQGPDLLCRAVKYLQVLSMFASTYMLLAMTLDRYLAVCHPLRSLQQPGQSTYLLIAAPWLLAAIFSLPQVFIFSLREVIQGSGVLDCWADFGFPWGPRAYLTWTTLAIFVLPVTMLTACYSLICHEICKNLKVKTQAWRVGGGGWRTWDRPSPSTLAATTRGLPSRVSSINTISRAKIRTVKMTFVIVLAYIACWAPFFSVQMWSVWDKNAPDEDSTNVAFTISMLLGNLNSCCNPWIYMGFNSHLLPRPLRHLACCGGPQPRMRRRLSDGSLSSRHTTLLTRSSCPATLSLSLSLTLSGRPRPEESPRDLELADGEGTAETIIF
Method: (§1) Each tracer candidate was screened across the entire library of HiBiT-GPCR constructs using NanoBRET as the detection modality. As depicted in Figure 4A, the specificity of interactions was evaluated through decrease in BRET due to competitive displacement of a bound tracer by excess parental compound. Each tracer was analyzed for binding to each HiBiT-GPCR fusion in the absence and in the presence of competing parental compound. Briefly, HEK293 cells were transfected with HiBiT-GPCR constructs diluted into promoterless DNA to reduce expression and maximize translocation to the cell surface. Each tracer candidate was then screened at concentrations of 1 μM and 0.1 μM across cells expressing these fusions. Cells were treated for 1.5 h with tracer either alone or in the presence of 20 μM competing parental compound (i.e., control). BRET was measured upon addition of purified LgBiT and subsequent complementation with HiBiT genetically fused to a GPCR. The specificity of interactions was assessed through a decrease in BRET signal due to competitive displacement of the bound tracer. To further gauge the robustness of these interactions, the fold response over the control (i.e., BRETtracer/BRETcontrol) was calculated. We chose a 1.5-fold response, which translates to ≥7-fold signal over noise as the minimal threshold required to score an interaction as positive. […]. Below we highlight the screening results obtained for our exemplary fluorescent tracers based on Clozapine, Amitriptyline and AZD1283.
(§2) HiBiT-GPCR DNA constructs were diluted in 10 mM Tris pH 8 to a final concentration of 0.01 μg/μL, arrayed in 96-well plates and stored at −20 °C. For transfection, HEK293 cells were suspended in Opti-MEM (without phenol red) supplemented with 2% fetal bovine serum (Seradigm) and 100 units/mL penicillin–streptomycin (Gibco) at a final concentration of 220,000 cells/mL and dispensed into white 96-well plates at 90 μL/well. Subsequent transfections and screens were carried using an Agilent Bravo Automated Liquid Handling Platform. First, the 96-well HiBiT DNA arrays were diluted 25-fold in Opti-MEM (without serum or phenol red) to a final concentration of 0.0004 μg/μL and 20 μL of the diluted DNAs were transferred into new 96-well plates. Next, promoterless carrier DNA (1 μg/μL) was diluted 25-fold (0.04 μg/μL) and then dispensed into the diluted arrays at 20 μL/well. Following brief mixing, Viafect transfection reagent (Promega) diluted 16-fold into Opti-MEM was dispensed into the plates at 40 μL/well. After mixing by pipetting, plates were incubated for 10 min on the pipetting station deck. The DNA-transfection reagent complexes were then added to plates containing cells. To facilitate the screen, 10 μL of DNA-transfection reagent complexes were added in duplicates to the top 4 and bottom 4 rows, resulting in two identical 48-well arrays per plate. Plates with transfected cells were incubated for 18–20 h at 37 °C/5% CO2. A screen of each tracer across the entire library using two different concentrations requires duplicate plates of transfected cells. Depending on the number of tracers being screened, transfections can be scaled up using the same ratios. The next day, for each tracer, four 20× screening solutions in tracer dilution buffer (Promega) were prepared: two duplicates at final concentration of 20 μM and two duplicates at a final concentration of 2 μM. A competing unmodified compound was added to one of each duplicate at a final concentration of 400 μM. The four resulting solutions were diluted 4-fold in Opti-MEM without serum or phenol red to generate 5× solutions (5 µM and 0.5 µM tracer +/− 100 μM competing compound). To screen the library, a BioTek MultiFlo FX liquid dispenser was used to dispense 22.5 µL of tracer solution to the top 4 rows and 22.5 µL tracer + competing compound solution to the 4 bottom rows. Plates were briefly mixed on an orbital shaker and incubated for 1.5 h at room temperature. […]

[3] = target: T3, OPRK1 (Homo sapiens, UniProt P41145); test: NanoBRET screen HiBiT-OPRK1 in HEK293
T3 construct: purchased Promega (in-house HiBiT-GPCR construct library, NanoBRET)
Method: as §1, §2

[4] = target: T4, PTAFR (Homo sapiens, UniProt P25105); test: NanoBRET screen HiBiT-PTAFR in HEK293
T4 construct: purchased Promega (in-house HiBiT-GPCR construct library, NanoBRET)
Method: as §1, §2

[5] = target: T5, NMUR1 (Homo sapiens, UniProt Q9HB89); test: NanoBRET screen HiBiT-NMUR1 in HEK293
T5 construct: purchased Promega (in-house HiBiT-GPCR construct library, NanoBRET)
T5 sequence (Q9HB89 1-426): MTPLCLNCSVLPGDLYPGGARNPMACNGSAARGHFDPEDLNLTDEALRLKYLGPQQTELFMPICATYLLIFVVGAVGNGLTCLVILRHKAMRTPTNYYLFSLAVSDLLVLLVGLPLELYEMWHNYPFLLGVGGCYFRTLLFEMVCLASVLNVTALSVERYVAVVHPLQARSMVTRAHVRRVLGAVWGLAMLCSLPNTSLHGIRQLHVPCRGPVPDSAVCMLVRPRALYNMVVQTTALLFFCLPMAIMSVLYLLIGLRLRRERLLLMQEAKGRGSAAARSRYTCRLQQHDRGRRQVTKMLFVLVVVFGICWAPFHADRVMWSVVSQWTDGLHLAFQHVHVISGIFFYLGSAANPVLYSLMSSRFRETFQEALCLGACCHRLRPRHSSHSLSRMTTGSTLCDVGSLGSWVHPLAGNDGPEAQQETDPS
Method: as §1, §2

T1 sequence (P08588 whole entry): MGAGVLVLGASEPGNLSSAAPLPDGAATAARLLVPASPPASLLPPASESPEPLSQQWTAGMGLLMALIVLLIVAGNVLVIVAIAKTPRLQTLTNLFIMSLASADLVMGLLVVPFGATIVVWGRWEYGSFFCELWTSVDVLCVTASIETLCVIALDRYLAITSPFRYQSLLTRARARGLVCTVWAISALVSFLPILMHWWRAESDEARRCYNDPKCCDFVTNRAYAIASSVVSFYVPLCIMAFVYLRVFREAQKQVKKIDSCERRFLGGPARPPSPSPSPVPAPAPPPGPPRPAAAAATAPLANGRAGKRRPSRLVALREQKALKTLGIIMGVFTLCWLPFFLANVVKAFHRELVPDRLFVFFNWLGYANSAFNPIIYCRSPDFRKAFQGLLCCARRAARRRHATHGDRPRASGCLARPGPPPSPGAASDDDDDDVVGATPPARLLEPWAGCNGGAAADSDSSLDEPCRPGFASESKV
T4 sequence (P25105 whole entry): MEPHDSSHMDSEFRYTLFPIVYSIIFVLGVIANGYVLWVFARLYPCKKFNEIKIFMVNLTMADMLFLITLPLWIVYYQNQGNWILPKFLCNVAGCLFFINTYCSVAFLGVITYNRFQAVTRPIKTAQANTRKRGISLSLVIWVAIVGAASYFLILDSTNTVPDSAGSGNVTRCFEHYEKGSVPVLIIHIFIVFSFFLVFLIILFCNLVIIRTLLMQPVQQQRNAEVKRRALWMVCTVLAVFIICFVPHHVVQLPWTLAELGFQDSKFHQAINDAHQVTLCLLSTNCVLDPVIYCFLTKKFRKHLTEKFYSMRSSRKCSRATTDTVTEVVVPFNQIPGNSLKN
T3 sequence (P41145 whole entry): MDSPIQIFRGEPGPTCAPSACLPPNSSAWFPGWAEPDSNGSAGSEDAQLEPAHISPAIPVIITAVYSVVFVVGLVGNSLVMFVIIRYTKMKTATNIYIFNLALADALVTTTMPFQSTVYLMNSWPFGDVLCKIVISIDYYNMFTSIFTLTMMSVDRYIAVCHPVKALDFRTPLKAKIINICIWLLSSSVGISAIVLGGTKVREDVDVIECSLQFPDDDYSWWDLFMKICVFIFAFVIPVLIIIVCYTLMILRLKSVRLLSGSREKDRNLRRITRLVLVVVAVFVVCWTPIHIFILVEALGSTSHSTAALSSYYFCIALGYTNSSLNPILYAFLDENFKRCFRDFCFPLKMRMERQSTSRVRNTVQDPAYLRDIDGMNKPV

Row | SMILES | NanoBRET Fold Response ([1]; 0.1μM tracer) | NanoBRET Fold Response ([1]; 1μM tracer) | NanoBRET Fold Response ([2]; 0.1μM tracer) | NanoBRET Fold Response ([2]; 1μM tracer) | NanoBRET Fold Response ([5]; 0.1μM tracer) | NanoBRET Fold Response ([5]; 1μM tracer) | NanoBRET Fold Response ([3]; 0.1μM tracer) | NanoBRET Fold Response ([3]; 1μM tracer) | NanoBRET Fold Response ([4]; 0.1μM tracer) | NanoBRET Fold Response ([4]; 1μM tracer) | NanoBRET Fold Response ([5]; NMUR1, tracer 0.1μM) | NanoBRET Fold Response ([5]; NMUR1, tracer 1μM) | NanoBRET Fold Response ([3]; OPRK1, tracer 0.1μM) | NanoBRET Fold Response ([4]; PTAFR, tracer 0.1μM) | NanoBRET Fold Response ([4]; PTAFR, tracer 1μM) | also measured
1 | CN(CCC=C1c2ccccc2CCc2ccccc21)C(=O)CCOCCOCCOCCOCCNC(=O)CCc1ccc2n1[B-](F)(F)[N+]1=C(c3ccc[nH]3)C=CC1=C2 [Amitriptyline-e-2-NB590] |  |  |  |  |  |  |  |  |  |  |  |  |  |  |  | NanoBRET Fold Response ([1]; tracer at 1μM): 0.95; NanoBRET Fold Response ([2]; tracer at 1μM): 1.01; NanoBRET Fold Response ([3]; tracer at 1μM): 1.05; NanoBRET Fold Response ([4]; tracer at 1μM): 1.06
2 | COc1ccc2c(n1)c(CCNC(C)=O)cn2CCNC(=O)CCc1ccc2n1[B-](F)(F)[N+]1=C(c3ccc[nH]3)C=CC1=C2 [Azamelatonin-1-NB590] | 0.98 | 0.96 | 0.90 | 1.00 | 0.78 | 0.97 | 0.92 | 0.92 | 1.05 | 1.05 |  |  |  |  |  | 
3 | COc1ccc2[nH]c(-c3ccc(CNC(=O)CCOCCOCCOCCOCCNC(=O)CCc4ccc5n4[B-](F)(F)[N+]4=C(c6ccc[nH]6)C=CC4=C5)cc3)c(CCNC(C)=O)c2n1 [AzomelatoninICO9-2-NB590] | 0.84 | 0.96 | 1.50 | 0.90 | 0.77 | 0.91 | 0.96 | 0.93 | 1.01 | 0.99 |  |  |  |  |  | 
4 | COc1ccccc1N1CCN(CCCCN2C(=O)c3ccc(CNC(=O)CCOCCOCCOCCOCCNC(=O)CCc4ccc5n4[B-](F)(F)[N+]4=C(c6ccc[nH]6)C=CC4=C5)cc3C2=O)CC1 [NAN-190-2-NB590] |  |  |  |  |  |  |  |  |  |  | 0.99 | 0.98 | 1.02 | 1.03 | 1.04 | 
5 | COc1ccccc1N1CCN(CCCCN2C(=O)c3ccc(CNC(=O)CCOCCNC(=O)c4ccc(CNC(=O)CCc5ccc6n5[B-](F)(F)[N+]5=C(c7ccc[nH]7)C=CC5=C6)cc4)cc3C2=O)CC1 [NAN-190-3-NB590] |  |  |  |  |  |  |  |  |  |  | 1.03 | 0.96 | 0.89 | 1.05 | 1.30 | NanoBRET Fold Response ([2]; AVPR1B, tracer 0.1μM): 1.04; NanoBRET Fold Response ([2]; AVPR1B, tracer 1μM): 1.04; NanoBRET Fold Response ([3]; OPRK1, tracer 1μM): 1.16
6 | O=C(CCc1ccc2n1[B-](F)(F)[N+]1=C(c3ccc[nH]3)C=CC1=C2)NCc1ccc(C(=O)NCCOCCOCCNCC(O)COc2cccc3ccccc23)cc1 (stereo not drawn) [Propranolol-3-NB590] |  |  |  |  |  |  |  |  |  |  |  |  |  |  |  | NanoBRET Fold Response ([2]; AVPR1B, 0.1μM): 0.90; NanoBRET Fold Response ([2]; AVPR1B, 1μM): 1.04; NanoBRET Fold Response ([5]; NMUR1, 0.1μM): 1.01; NanoBRET Fold Response ([5]; NMUR1, 1μM): 1.00; NanoBRET Fold Response ([3]; OPRK1, 0.1μM): 1.08; NanoBRET Fold Response ([3]; OPRK1, 1μM): 1.02; NanoBRET Fold Response ([4]; PTAFR, 0.1μM): 1.02; NanoBRET Fold Response ([4]; PTAFR, 1μM): 1.04
